These are literature values, as cited in PMC6426469 (Science Advances, 2019).

Data set [1] relates to APP/PS1 mice. As to conditions: 1-week treatment.
Data set [2] has as its system APP/PS1 mice. The conditions noted are these: prolonged treatment for 30 days.
Another data set concerns DG granule cells. As to conditions: previous study.

Turning to `C#CCN(C)[C@H](C)Cc1ccccc1` [Selegiline, selegiline], the “memory impairments, passive avoidance test” value with APP/PS1 mice [1] was “effective in rescuing memory impairments”. Further, in the data set with APP/PS1 mice [2], the “spatial memory impairments, Morris water maze” value was “failed to significantly reverse spatial memory impairments”. As to `C[C@H](NCc1ccc(OCc2cccc(F)c2)cc1)C(N)=O` [safinamide], in the data set on DG granule cells, the “efficacy on spike probability” value is on record as “showed prolonged efficacy”.
